Measurements reported in the kinase profiling compilation of Christmann-Franck et al. (2016).

How the values were obtained:
Experiment in all cases: KINOMEscan competition binding
Settings in all cases: compound 10.0 µM
KDR (human) = KDR (human) (UniProt P35968)
[1] = test system: EGFR (human), P00533 [752-759 del]
[2] = test system: FGFR3 (human), P22607 [G697C]
CSNK2A1 (human) = CSNK2A1 (human) (UniProt P68400)
MYLK2 (human) = MYLK2 (human) (UniProt Q9H1R3)
PRKAA1 (human) = PRKAA1 (human) (UniProt Q13131)
ACVR1 (human) = ACVR1 (human) (UniProt Q04771)
CAMKK2 (human) = CAMKK2 (human) (UniProt Q96RR4)
Chain of CAMKK2 (human) (Q96RR4 whole entry, looked up): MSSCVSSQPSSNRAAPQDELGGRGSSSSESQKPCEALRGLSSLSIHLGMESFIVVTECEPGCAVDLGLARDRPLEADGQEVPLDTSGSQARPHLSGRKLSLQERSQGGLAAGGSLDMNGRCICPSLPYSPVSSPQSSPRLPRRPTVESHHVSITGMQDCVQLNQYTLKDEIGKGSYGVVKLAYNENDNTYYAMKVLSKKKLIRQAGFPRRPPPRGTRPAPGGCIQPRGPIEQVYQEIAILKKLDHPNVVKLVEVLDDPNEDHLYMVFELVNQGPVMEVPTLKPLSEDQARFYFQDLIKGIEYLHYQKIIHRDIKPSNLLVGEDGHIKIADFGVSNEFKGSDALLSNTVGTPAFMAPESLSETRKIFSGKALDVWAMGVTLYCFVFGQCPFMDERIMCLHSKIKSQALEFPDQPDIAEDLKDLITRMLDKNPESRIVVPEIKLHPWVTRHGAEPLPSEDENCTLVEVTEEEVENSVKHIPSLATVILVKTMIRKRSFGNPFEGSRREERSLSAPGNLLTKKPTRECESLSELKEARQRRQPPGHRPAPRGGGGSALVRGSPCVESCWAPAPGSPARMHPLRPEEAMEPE

LIMK1 (human) = LIMK1 (human) (UniProt P53667)
MELK (human) = MELK (human) (UniProt Q14680)
MAP3K11 (human) = MAP3K11 (human) (UniProt Q16584)
EPHB6 (human) = EPHB6 (human) (UniProt O15197)
MAP3K10 (human) = MAP3K10 (human) (UniProt Q02779)
[3] = test system: PIK3CA (human), P42336 [E542K]
[4] = test system: ABL1 (human), P00519 [M351T]
MAP3K12 (human) = MAP3K12 (human) (UniProt Q12852)
CSNK1G3 (human) = CSNK1G3 (human) (UniProt Q9Y6M4)
BRSK1 (human) = BRSK1 (human) (UniProt Q8TDC3)
Chain of BRSK1 (human) (Q8TDC3 whole entry, looked up): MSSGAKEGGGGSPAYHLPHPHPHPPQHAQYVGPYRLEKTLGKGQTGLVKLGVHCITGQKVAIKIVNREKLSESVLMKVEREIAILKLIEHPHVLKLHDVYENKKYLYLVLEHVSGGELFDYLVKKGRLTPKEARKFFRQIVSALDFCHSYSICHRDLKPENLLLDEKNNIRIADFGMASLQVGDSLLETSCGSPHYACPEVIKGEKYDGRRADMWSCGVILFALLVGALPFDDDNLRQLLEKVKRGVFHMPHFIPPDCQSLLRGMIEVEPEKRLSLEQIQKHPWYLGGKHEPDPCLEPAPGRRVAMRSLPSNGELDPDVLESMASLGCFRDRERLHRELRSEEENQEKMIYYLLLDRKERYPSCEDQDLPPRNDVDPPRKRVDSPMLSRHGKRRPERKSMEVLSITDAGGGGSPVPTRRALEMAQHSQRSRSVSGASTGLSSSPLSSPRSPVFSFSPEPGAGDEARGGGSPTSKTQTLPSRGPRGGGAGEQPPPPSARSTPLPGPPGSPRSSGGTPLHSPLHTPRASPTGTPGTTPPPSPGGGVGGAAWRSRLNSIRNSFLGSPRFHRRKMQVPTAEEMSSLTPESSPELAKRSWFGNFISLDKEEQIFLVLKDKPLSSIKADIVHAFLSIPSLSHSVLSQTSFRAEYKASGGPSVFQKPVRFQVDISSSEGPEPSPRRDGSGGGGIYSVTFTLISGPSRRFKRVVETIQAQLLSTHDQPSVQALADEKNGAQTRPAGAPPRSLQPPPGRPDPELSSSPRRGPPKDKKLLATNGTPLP

CDC2L2 (human) = CDC2L2 (human) (UniProt Q9UQ88)
RIPK2 (human) = RIPK2 (human) (UniProt O43353)
MYO3A (human) = MYO3A (human) (UniProt Q8NEV4)
STK25 (human) = STK25 (human) (UniProt O00506)
Chain of STK25 (human) (O00506 whole entry, looked up): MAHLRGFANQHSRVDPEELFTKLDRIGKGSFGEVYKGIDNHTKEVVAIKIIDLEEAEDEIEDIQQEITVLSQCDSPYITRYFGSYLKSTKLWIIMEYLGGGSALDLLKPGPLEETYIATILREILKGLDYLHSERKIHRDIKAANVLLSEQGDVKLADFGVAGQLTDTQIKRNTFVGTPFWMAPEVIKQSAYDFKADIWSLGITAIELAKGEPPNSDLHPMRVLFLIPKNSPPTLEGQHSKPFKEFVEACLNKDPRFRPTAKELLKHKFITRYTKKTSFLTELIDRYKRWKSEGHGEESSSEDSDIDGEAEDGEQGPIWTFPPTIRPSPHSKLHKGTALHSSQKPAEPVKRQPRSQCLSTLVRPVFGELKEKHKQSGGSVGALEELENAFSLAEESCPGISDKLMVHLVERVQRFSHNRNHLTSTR

IKBKB (human) = IKBKB (human) (UniProt O14920)
TESK1 (human) = TESK1 (human) (UniProt Q15569)
Chain of TESK1 (human) (Q15569 whole entry, looked up): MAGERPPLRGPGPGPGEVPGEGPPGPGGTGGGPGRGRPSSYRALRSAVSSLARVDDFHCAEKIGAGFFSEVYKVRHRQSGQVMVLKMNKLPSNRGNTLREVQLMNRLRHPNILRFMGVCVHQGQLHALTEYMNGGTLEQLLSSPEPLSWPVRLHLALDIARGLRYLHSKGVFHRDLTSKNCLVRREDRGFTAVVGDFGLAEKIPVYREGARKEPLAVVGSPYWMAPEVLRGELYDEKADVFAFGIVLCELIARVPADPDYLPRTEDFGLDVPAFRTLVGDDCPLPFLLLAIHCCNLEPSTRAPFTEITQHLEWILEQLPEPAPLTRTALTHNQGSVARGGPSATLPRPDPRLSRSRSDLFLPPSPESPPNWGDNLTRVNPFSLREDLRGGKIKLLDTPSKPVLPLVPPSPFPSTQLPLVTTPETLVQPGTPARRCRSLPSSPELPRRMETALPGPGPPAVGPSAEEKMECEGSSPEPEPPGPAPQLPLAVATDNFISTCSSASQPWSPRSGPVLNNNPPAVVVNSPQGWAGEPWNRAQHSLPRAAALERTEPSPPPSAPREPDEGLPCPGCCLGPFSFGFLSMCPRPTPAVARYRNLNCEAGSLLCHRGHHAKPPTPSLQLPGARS

PDPK1 (human) = PDPK1 (human) (UniProt O15530)
MAPK15 (human) = MAPK15 (human) (UniProt Q8TD08)
CPK1 (P.falciparum) = test system: CPK1 (P.falciparum)
BMP2K (human) = BMP2K (human) (UniProt Q9NSY1)
MERTK (human) = MERTK (human) (UniProt Q12866)
GSK3A (human) = GSK3A (human) (UniProt P49840)
[5] = test system: KIT (human), P10721 [A829P]
PIP4K2C (human) = PIP4K2C (human) (UniProt Q8TBX8)
MAP3K15 (human) = MAP3K15 (human) (UniProt Q6ZN16)
Chain of MAP3K15 (human) (Q6ZN16 whole entry, looked up): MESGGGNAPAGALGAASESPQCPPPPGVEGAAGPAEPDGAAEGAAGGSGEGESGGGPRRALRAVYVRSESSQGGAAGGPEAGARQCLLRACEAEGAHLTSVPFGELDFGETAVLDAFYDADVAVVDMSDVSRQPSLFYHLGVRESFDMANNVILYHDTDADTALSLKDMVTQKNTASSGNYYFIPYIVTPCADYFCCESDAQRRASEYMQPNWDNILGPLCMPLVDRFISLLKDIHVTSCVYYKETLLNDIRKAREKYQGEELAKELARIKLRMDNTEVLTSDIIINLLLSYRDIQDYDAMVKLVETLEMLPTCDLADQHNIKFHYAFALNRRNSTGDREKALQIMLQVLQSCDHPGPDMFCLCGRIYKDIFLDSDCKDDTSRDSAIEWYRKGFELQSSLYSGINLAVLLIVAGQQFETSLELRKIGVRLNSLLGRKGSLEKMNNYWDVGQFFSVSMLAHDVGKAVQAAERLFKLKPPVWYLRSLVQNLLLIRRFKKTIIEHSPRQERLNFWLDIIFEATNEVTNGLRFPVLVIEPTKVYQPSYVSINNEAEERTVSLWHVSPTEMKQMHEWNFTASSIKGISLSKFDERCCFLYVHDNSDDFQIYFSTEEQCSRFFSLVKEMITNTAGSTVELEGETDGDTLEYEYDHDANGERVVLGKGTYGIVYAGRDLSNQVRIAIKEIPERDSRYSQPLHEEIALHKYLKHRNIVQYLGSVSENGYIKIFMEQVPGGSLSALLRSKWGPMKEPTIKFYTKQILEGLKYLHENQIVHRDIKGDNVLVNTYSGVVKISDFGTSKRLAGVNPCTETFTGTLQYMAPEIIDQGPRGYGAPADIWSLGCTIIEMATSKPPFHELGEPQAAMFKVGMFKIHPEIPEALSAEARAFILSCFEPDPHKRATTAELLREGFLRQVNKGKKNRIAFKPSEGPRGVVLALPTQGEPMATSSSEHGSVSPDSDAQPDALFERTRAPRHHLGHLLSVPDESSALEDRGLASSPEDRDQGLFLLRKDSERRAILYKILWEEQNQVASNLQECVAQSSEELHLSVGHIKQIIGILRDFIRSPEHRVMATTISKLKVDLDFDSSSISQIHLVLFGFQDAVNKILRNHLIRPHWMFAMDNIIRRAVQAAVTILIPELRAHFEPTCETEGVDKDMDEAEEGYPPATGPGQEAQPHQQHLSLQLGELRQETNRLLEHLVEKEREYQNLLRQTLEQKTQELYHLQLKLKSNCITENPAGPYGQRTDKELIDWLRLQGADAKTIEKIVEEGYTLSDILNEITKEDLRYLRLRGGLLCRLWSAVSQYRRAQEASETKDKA

EPHA1 (human) = EPHA1 (human) (UniProt P21709)
Chain of EPHA1 (human) (P21709 whole entry, looked up): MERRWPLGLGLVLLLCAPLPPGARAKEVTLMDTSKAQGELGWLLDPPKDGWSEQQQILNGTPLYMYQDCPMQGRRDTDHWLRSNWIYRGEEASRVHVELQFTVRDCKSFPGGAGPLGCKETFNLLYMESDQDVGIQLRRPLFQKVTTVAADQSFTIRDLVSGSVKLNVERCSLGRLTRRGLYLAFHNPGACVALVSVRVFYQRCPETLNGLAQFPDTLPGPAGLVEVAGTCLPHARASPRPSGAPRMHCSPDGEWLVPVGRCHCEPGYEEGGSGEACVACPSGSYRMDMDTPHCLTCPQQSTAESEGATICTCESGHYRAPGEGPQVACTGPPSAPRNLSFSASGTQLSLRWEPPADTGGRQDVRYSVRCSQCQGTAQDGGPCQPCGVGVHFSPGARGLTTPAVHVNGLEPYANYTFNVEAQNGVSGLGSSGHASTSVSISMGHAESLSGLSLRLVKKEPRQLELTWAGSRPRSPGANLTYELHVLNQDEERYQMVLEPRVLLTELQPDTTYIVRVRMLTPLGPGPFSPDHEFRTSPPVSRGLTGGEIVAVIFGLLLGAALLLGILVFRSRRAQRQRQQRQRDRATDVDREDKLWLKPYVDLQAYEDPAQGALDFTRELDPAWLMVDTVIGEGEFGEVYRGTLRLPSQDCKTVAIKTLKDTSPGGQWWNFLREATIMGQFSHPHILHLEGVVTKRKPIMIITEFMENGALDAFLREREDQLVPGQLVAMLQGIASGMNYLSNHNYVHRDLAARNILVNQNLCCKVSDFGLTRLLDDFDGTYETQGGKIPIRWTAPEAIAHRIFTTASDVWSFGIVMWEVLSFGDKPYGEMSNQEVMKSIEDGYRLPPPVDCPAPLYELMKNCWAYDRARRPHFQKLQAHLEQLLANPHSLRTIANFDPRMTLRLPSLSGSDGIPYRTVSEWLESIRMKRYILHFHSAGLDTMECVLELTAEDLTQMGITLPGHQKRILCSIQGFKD

SIK1 (human) = SIK1 (human) (UniProt P57059)
MAPK14 (human) = MAPK14 (human) (UniProt Q16539)
DAPK2 (human) = DAPK2 (human) (UniProt Q9UIK4)
Chain of DAPK2 (human) (Q9UIK4 whole entry, looked up): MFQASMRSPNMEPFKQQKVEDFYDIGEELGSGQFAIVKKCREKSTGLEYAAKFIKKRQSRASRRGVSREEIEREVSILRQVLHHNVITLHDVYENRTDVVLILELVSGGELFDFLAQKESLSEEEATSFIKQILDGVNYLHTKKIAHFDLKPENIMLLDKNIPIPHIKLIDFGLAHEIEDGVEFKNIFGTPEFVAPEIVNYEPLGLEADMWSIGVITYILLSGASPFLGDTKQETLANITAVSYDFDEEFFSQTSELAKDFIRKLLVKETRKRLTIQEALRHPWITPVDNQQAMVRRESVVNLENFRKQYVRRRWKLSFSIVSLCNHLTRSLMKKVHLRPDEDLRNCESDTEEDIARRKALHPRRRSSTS

MAPKAPK2 (human) = MAPKAPK2 (human) (UniProt P49137)
STK38 (human) = STK38 (human) (UniProt Q15208)
FLT1 (human) = FLT1 (human) (UniProt P17948)
MARK1 (human) = MARK1 (human) (UniProt Q9P0L2)

`COc1cc(C(=O)N2CCC(N3CCN(C)CC3)CC2)ccc1Nc1ncc2c(n1)N(C)c1ccccc1C(=O)N2C` was tested, and the kinase still bound, per cent of control (KDR (human)) was 84%, the kinase still bound, per cent of control [1] was 99% and the kinase still bound, per cent of control [2] was 85%. It also gave a kinase still bound, per cent of control (CSNK2A1 (human)) of 100%, a kinase still bound, per cent of control (MYLK2 (human)) of 98% and a kinase still bound, per cent of control (PRKAA1 (human)) of 51%. The kinase still bound, per cent of control (ACVR1 (human)) was 98%, the kinase still bound, per cent of control (CAMKK2 (human)) was 31% and the kinase still bound, per cent of control (LIMK1 (human)) was 95%. The kinase still bound, per cent of control (MELK (human)) was 100%, the kinase still bound, per cent of control (MAP3K11 (human)) was 100% and the kinase still bound, per cent of control (EPHB6 (human)) was 31%. The kinase still bound, per cent of control (MAP3K10 (human)) was 100%, the kinase still bound, per cent of control [3] was 77% and the kinase still bound, per cent of control [4] was 94%. It also gave a residual activity (MAP3K12 (human)) of 81%, a kinase still bound, per cent of control (CSNK1G3 (human)) of 93% and a kinase still bound, per cent of control (BRSK1 (human)) of 81%. For the same molecule, the residual activity (CDC2L2 (human)) was 82%, the kinase still bound, per cent of control (RIPK2 (human)) was 100% and the kinase still bound, per cent of control (MYO3A (human)) was 94%. It also gave a kinase still bound, per cent of control (STK25 (human)) of 68%, a kinase still bound, per cent of control (IKBKB (human)) of 89% and a kinase still bound, per cent of control (TESK1 (human)) of 82%. It also gave a kinase still bound, per cent of control (PDPK1 (human)) of 100%, a kinase still bound, per cent of control (MAPK15 (human)) of 100% and a kinase still bound, per cent of control (CPK1 (P.falciparum)) of 100%. The kinase still bound, per cent of control (BMP2K (human)) was 100%, the kinase still bound, per cent of control (MERTK (human)) was 100% and the kinase still bound, per cent of control (GSK3A (human)) was 100%. For the same molecule, the kinase still bound, per cent of control [5] was 100%, the kinase still bound, per cent of control (PIP4K2C (human)) was 40% and the kinase still bound, per cent of control (MAP3K15 (human)) was 69%. The kinase still bound, per cent of control (EPHA1 (human)) was 100%, the kinase still bound, per cent of control (SIK1 (human)) was 77% and the kinase still bound, per cent of control (MAPK14 (human)) was 87%. It also gave a kinase still bound, per cent of control (DAPK2 (human)) of 67%, a kinase still bound, per cent of control (MAPKAPK2 (human)) of 100% and a kinase still bound, per cent of control (STK38 (human)) of 96%. It also gave a kinase still bound, per cent of control (FLT1 (human)) of 100% and a kinase still bound, per cent of control (MARK1 (human)) of 87%.
